Measurements published in patent publication US20240269308A1, “PRODRUGS OF TOPOISOMERASE I INHIBITOR FOR ADC CONJUGATIONS AND METHODS OF USE THEREOF” (priority 2022, published 2024).
pEC50: −log10 of the molar value. Values after ≈ are worked out from the molar mass of the structure shown.

Assays:
HCT-15 = HCT-15 cell killing EC50 (−v / +v); type: cell-based
SK-BR-3 cells = experiment: SKBR3 cell-based anti-proliferation / viability assay (CellTiter-Glo); set-up: species or system human; details: read-out: SKBR3 EC50
Description: The anti-Her2 viability assay protocol is following.
0.1% BSA was added to the Opti-MEM reduced serum media [Gibco, cat #31985-070]. This assay media was used for the dilution of ADC and free drug.
Cells were seeded in their growth media into 96 well plates (Thermo #136101) one day prior to adding ADCs: 1000/well SKBR3 cells in 80 uL media (target positive cells), 1000/well NCI-N87 cells in 80 uL media (target positive cells), 1000/well Calu-3 in 80 uL media (target positive cells), and 800/well NCI-H1975 cells in 80ul media (target negative cells).
Serial dilutions of free drug in 100% DMSO (1:4 10 pts starting from 100 uM) were prepared. Serially diluted payload was transferred into Opti-Mem with 0.1% BSA (10 uL into 990 uL media). Serial dilutions of ADCs/isotype controls at 1:4 in Opti-Mem with 0.1% BSA (starting from 5×1000 nM) were prepared. 20ul assay media diluted ADC/isotype conjugates as well as free drug were transferred to above cells. The plates were incubated at 37° C., 5% CO2 for 6 days. Plates were developed by adding 100ul CellTiter Glo 2.0. RT 5-10 min. Plates were read with Envision plate reader. Data was analyzed using Prism. Only inner 60 well are used for the assay. The edge wells were filled with media to prevent dry out.
The cell line used in the anti-proliferation assays was SK-BR-3, a human breast, adenocarcinoma (pleural effusion) cell line; The cells were grown in McCoy's 5a Medium+10% FBS. To run the assay, the cells (80 μl, 1000 cells) were added to each well in a 96-well plate and incubated for 24 hours at 37° C. with CO2. Next, the cells were treated with test compounds (20 μl) at various concentrations in appropriate cell culture medium (total volume, 0.1 mL). The control wells contain cells and the medium but lack the test compounds. The plates were incubated for 144 hours at 37° C. with CO2. CTG reagent was then added to the wells (100 μl). After the plates were shaken for 10 min and then incubated for 10 min at room temperature, paste the clear bottom with white back seal and record luminescence with Envision. The inhibition % was calculated according to the following equation: inhibition %=[1-(assay-blank)/(control-blank)]×100.

[1] = Mouse whole blood stability test; type: in vitro ADME; details: 37° C.; for % of test compound in whole blood (initial 1 uM as 100%): mouse blood
Description: In vitro stability of Linker-Prodrug in mouse whole blood Scheme 15. Metabolism of LP1 (M2980) in whole blood.
Stock solution of test compound was provided in 100% DMSO. The stock solution for each compound was diluted into 500 μM with mixture of 50% acetonitrile, then diluted into mouse blood to achieve a final concentration of 1.0 μM. 1.0 μM of test compound in duplicate was incubated in blood at 37° C. Aliquots of 50 uL sample was collected at 0, 15, 30, 60, 120, 240, 480 min, and 24 hours. Reactions were terminated at various time points (0, 15, 30, 60, 120, 240, 480 min, 24 hours) by adding 200 μL of ice-cold acetonitrile containing internal standard with 1% formic acid and then ultrasound for 30 seconds. Plate was centrifuged (4000 rpm, 15 min). 50 μL of supernatants were transferred into a daughter plate containing 200 μL of H2O in each well. The samples were mixed well and analyzed with UPLC-MS/MS.
A Waters liquid chromatographic system was used. Detection was performed on AP14000 Q-Trap and AP15500 mass spectrometer equipped with TurbolonSpray (ESI) Interface (Applied Biosystems, Concord, Ontario, Canada). Analyst 1.5 and 1.6.2 software packages (Applied Biosystems) were used to control the LC-MS/MS system, as well as for data acquisition and processing.
Chromatographic separation was achieved on the Wates BEH C18 column (50*2.1 mm ID, 1.7 μm). The column temperature was maintained at ambient temperature (25° C.). The flow rate was maintained at 0.6 mL/min and the following mobile phases were used: water (0.1% formic acid, v/v) (phase A) and acetonitrile (0.1% formic acid, v/v) (phase B).
Test compounds (1.0 μM) were incubated in blood at 37° C. in duplicate. Aliquots of 50 uL sample was collected at 0, 15, 30, 60, 120, 240, 480 min, and 24 hours. Reactions were terminated at various time points (0, 15, 30, 60, 120, 240, 480 min, 24 hours by adding 200 μL of ice-cold acetonitrile containing internal standard with 1% formic acid, then ultrasound for 30 seconds. The plate was centrifuged (4000 rpm, 15 min). 50 μL of supernatants were transferred into a daughter plate containing 200 μL of water in each well. Samples were mixed well and analyzed with UPLC-MS/MS.
The % was calculated based on initial 1 uM as 100% and the standard concentration curve.

[2] = Solubility (Certificate of Analysis of LP1, physical and chemical properties); type: physicochemical; details: LP1 13g lot, free base
[3] = Special liability / stability (Certificate of Analysis of LP1, physical and chemical properties); type: physicochemical; details: LP1 13g lot, free base
[4] = M3385 metabolism in human liver S9 with NADPH and UDPGA; type: in vitro ADME; details: M3385 incubated in human liver S9 with NADPH and UDPGA, 240 min; single peak (parent or metabolite)
From the text: (§1) Briefly, hepatocytes are complete liver cells, containing various first-phase and second-phase enzymes that can mediate various metabolic reactions; therefore, it is a better in vitro model to test metabolites. Liver S9 is the supernatant obtained by grinding and centrifuging the liver cells. The enzymes content is lower compared to Hepatocytes. It mainly contains CYP enzymes and some biphasic enzymes (but no biphasic coenzyme), so additional coenzyme (NADPH and UDPGA, etc.) is needed to mediate the biphasic reaction.
The metabolism of model compound M3385 was evaluated in human liver S9 with NADPH and UDPGA as follows:
(§2) Assay buffer: 100 mM potassium phosphate buffer (K+/Mg2+ buffer, pH7.4):
(§3) The initial stock of liver S9 was diluted in K+/Mg^2+ buffer, pH 7.4 from 20 mg/ml to 2× Liver S9 (2 mg/mL) with alamethicin (50 μg/mL):
(§4) 2×LS9/compound M3385 solution was prepared.
(§5) Time zero/T0: 199 μL 2 mg/mL liver S9 solution; 100 μL of 8 mM NADPH solution; 100 μL of 20 mM UDPGA solution; and 1200 μL of ACN were added, vortexed at 1000 rpm for 5 min, then 1 μL of 4 mM test compound solution was added.
T240 with a co-factor: 199 μL 2 mg/mL liver S9 solution; 100 μL of 8 mM NADPH solution; and 100 μL of 20 mM UDPGA solution were added. The T240 sample was prewarmed at 37° C. for 5 min and 1 μL of 4 mM test compound solution was added. After 240 min incubation, 1200 μL of ACN was added and then vortexed at 1000 rpm for 5 min.
(§6) Protein precipitation: quenched samples were centrifuged at 14000 rpm for 5 min.
(§7) Sample preparation: an aliquot of 1200 μL of the supernatant was evaporated under N2 stream until dry. Dried extracts were reconstituted with 200 μL of 25% aqueous ACN, vortexed for 2 minutes, centrifuged at 14000 rpm for 5 min, and then 3 μL of reconstituted supernatant were injected for LC-UV-MS analysis.

[5] = M3385 metabolism in human liver S9 without cofactors NADPH and UDPGA; type: in vitro ADME; details: 240 min; for Relative UV Abundance* (%): M3385 incubated in human liver S9 without NADPH and UDPGA, single peak (parent or metabolite)
From the text: as §1, §2, §3, §4, §5
T240-without a co-factor: 199 μL 2 mg/mL liver S9 solution and 200 μL of buffer were added. The T240-w/o sample was prewarmed at 37° C. for 5 min and 1 μL of 4 mM test compound solution was added. After 240 min incubation, 1200 μL of ACN was added and then vortexed at 1000 rpm for 5 min.
as §6, §7

CC[C@@]1(O)C(=O)OCc2c1cc1n(c2=O)Cc2c-1nc1cc(F)c(C)c3c1c2[C@@H](N)CC3 [EXT, reference compound]
EC50 (HCT-15; +v): 1.13 nM | EC50 (HCT-15; −v): 1.22 nM | pEC50 (SK-BR-3 cells): 9.28

CC[C@@]1(O)C(=O)OCc2c1cc1n(c2=O)Cc2c-1nc1cc(F)c(C)c3c1c2[C@@H](NC(=O)COCNC(=O)CNC(=O)OCc1ccc(NC(=O)[C@H](CCCNC(N)=O)NC(=O)[C@@H](NC(=O)CCOCCOCCOCCOCCNC(=O)COC2C#CCCCCC2)C(C)C)cc1)CC3 (stereo partly drawn) [LP1, {4-[(2S)-5-(carbamoylamino)-2-[(2S)-2-{1-[2-(cyclooct-2-yn-1-yloxy)acetamido]-3,6,9,12-tetraoxapentadecan-15-amido}-3-methylbutanamido]pentanamido]phenyl}methyl N-({[({[(10S,23S)-10-ethyl-18-fluoro-10-hydroxy-19-methyl-5,9-dioxo-8-oxa-4,15-diazahexacyclo[14.7.1.0^2,14.0^4,13.0^6,11.0^20,24]tetracosa-1,6(11),12,14,16,18,20(24)-heptaen-23-yl]carbamoyl}methoxy)methyl]carbamoyl}methyl)carbamate]
% of test compound in whole blood (initial 1 uM as 100%) ([1]; 0 hr): 100.0% | % of test compound in whole blood (initial 1 uM as 100%) ([1]; 0.25 hr): 88.8% | % of test compound in whole blood (initial 1 uM as 100%) ([1]; 0.5 hr): 82.6% | % of test compound in whole blood (initial 1 uM as 100%) ([1]; 1 hr): 72.3% | % of test compound in whole blood (initial 1 uM as 100%) ([1]; 2 hr): 52.8% | % of test compound in whole blood (initial 1 uM as 100%) ([1]; 4 hr): 30.5% | % of test compound in whole blood (initial 1 uM as 100%) ([1]; 8 hr): 16.5% | % of test compound in whole blood (initial 1 uM as 100%) ([1]; 24 hr): 0.0% | Metabolism in whole blood ([1]; mouse whole blood): metabolized to ProDXD, and then to DXd | solubility ([2]; in water): 0.026 mM (≈ 36.3 µg/mL) | solubility ([2]; organic solvent or mixture, in DMSO): 10 mM (≈ 14000 µg/mL) | Special liability (light) [3]: Light sensitive | Special liability (pH stability) [3]: unstable at pH <3 or pH >11

CC[C@@](O)(C(=O)O)c1cc2n(c(=O)c1CO)Cc1c-2nc2cc(F)c(C)c3c2c1[C@@H](NC(=O)COCNC(=O)CN)CC3 [MP1R]
Relative UV Abundance* (%) [4]: 0.29% | Relative UV Abundance* (%) [5]: 0.38%

CC[C@@]1(O)C(=O)OCc2c1cc1n(c2=O)Cc2c-1nc1cc(F)c(C)c3c1c2[C@@H](NC(=O)COCNC(=O)CN)CC3 [MP1]
Relative UV Abundance* (%), group total ([5]; human, 10 μM, pH 7.4): 4.93%

CC[C@@](O)(C(=O)O)c1cc2n(c(=O)c1CO)Cc1c-2nc2cc(F)c(C)c3c2c1[C@@H](NC(=O)CO)CC3 [MP2R]
Relative UV Abundance* (%) [4]: 0.14% | Relative UV Abundance* (%) [5]: 0.18%
